{"source": "patent US9095581B2", "about": "“Combinations of MEK inhibitors and Raf kinase inhibitors and uses thereof” (Ardea Biosciences, Inc., priority 2008, dated 2015)", "key": {"[1]": {"tested_on": "Hep3B cells", "assay": "In vitro cell proliferation assay of Hep3B cell line, compound A with other anticancer agents (Example 6B)", "type": "cell-based, human", "conditions": "agent in combination with compound A; 3, 4 or 6 days", "procedure": "Cell culture/Growth Inhibition Assay: Human hepatocelluar carcinoma Hep3B cells were obtained from ATCC (Manassas, Va.). Hep3B cells were maintained in EMEM supplemented with 10% fetal bovine serum, penicillin (100 U/ml), and streptomycin (100 μg/ml). Cells were maintained at 37° C., 5% CO2, and 100% humidity. For cell proliferation experiments, cells were plated in white 96-well plates with clear bases at either 3000 cells/100 μl/well, 2000 cells/100 μl/well or 1000 cells/100 μl/well and treated as follows for 3 days, 4 days, or 6 days respectively. […] Following incubation for the indicated time at 37° C., ATP levels were determined using CellTiterGlo (Promega, Madison, Wis.) and reading luminescence values using a Lit Biosystems Analyst HT (Sunnyvale, Calif.). The ATP level for each dose combination was determined in triplicate using independent wells, and the experiment was performed several times. […] For comparison, the dose response for each single agent was also determined. The relative cell proliferation number was determined with the following formula: […]"}, "[2]": {"tested_on": "Hep3B Hepatoma cells", "assay": "In vitro cell proliferation assay of Hep3B cell line (CellTiterGlo ATP levels)", "type": "cell-based, human", "conditions": "sorafenib alone", "procedure": "The effect of compound A in combination with sorafenib was examined in a cell line derived from a human hepatocellular carcinoma in a cell proliferation assay.\nCell culture/Growth Inhibition Assay: Human hepatocelluar carcinoma Hep3B cells were obtained from ATCC (Manassas, Va.). Hep3B cells were maintained in EMEM supplemented with 10% fetal bovine serum, penicillin (100 U/ml), and streptomycin (100 μg/ml). Cells were maintained at 37° C., 5% CO2, and 100% humidity. For cell proliferation experiments, cells were plated in white 96-well plates with clear bases at either 3000 cells/100 μl/well, 2000 cells/100 μl/well or 1000 cells/100 μl/well and treated as follows for 3 days, 4 days, or 6 days respectively. After 24 hr, cell media was removed and replaced with media containing combinations of compound A of formula I and sorafenib. Following incubation for the indicated time at 37° C., ATP levels were determined using CellTiterGlo (Promega, Madison, Wis.) and reading luminescence values using a LJL Biosystems Analyst FIT (Sunnyvale, Calif.). The ATP level for each dose combination was determined in triplicate using independent wells, and the experiment was performed several times. […] For comparison, the dose response for each single agent was also determined. The relative cell proliferation number was determined with the following formula: […]"}, "[3]": {"tested_on": "human gastric adenocarcinoma cell line AGS", "assay": "In vitro cell proliferative activity of AGS cell line (CellTiterGlo ATP levels)", "type": "cell-based", "procedure": "The effect of compound A in combination with sorafenib was examined in a cell line derived from a human gastric adenocarcinoma, in a cell proliferation assay.\nCell culture/Growth Inhibition Assay: The human gastric adenocarcinoma cell line AGS was obtained from ATCC (Manassas, Va.). AGS cells were maintained in DMEM/F12 supplemented with 10% fetal bovine serum, penicillin (100 U/ml), and streptomycin (100 μg/ml). Cells were maintained at 37° C., 5% CO2, and 100% humidity. For cell proliferation experiments, cells were plated in white 96-well plates with clear bases at 3000 cells/100 μl/well. After 24 hr, cell media was removed and replaced with media containing combinations of 621119 and sorafenib. Following incubation for 48 hours at 37° C., ATP levels were determined using CellTiterGlo (Promega, Madison, Wis.) and reading luminescence values using a LJL Biosystems Analyst HT (Sunnyvale, Calif.). The ATP level for each dose combination was determined in triplicate using independent wells, and the experiment was performed several times. For synergy experiments, either 621119 or sorafenib was dosed at a fixed, subefficacious dose, while the second agent (sorafenib or 621119 respectively) was added across a range of doses. For comparison, the dose response for each single agent was also determined. The relative cell proliferation number was determined with the following formula: […]"}}}
{"smiles": "O=C(CCCCCCC(=O)Nc1ccccc1)NO", "note": "[Vorinostat]", "values": [{"measurement": "synergy with compound A in cell proliferation", "setting": "[1]", "value": "no synergy"}]}
{"smiles": "CNC(=O)c1cc(Oc2ccc(NC(=O)Nc3ccc(Cl)c(C(F)(F)F)c3)cc2)ccn1", "note": "[sorafenib, 4-[4-[[4-chloro-3-(trifluoromethyl)phenyl]carbamoylamino]phenoxy]-N-methyl-pyridine-2-carboxamide]", "values": [{"measurement": "inhibition of cell proliferation", "setting": "[2]; 2 μM and lower, after 4 days (FIG. 8C)", "value": "little or no inhibition"}, {"measurement": "inhibition of cell proliferation", "setting": "[2]; 5 μM and lower, after 3 days (FIG. 8A)", "value": "little activity"}, {"measurement": "inhibition of cell proliferation (cell number relative to vehicle)", "setting": "[3]; sorafenib alone at 5 uM, after 48 hours (FIG. 9B)", "value": "little activity"}, {"measurement": "inhibition of cell proliferation (relative cell number)", "setting": "[3]; sorafenib alone, 5 uM and lower, after 48 hours (FIG. 9A)", "value": "little activity"}]}
{"smiles": "CS(=O)(=O)CCNCc1ccc(-c2ccc3ncnc(Nc4ccc(OCc5cccc(F)c5)c(Cl)c4)c3c2)o1", "note": "[Lapatinib]", "values": [{"measurement": "synergy with compound A in cell proliferation", "setting": "[1]", "value": "no synergy"}]}
{"smiles": "CCCCCCCCCCCCCCCCCCOP(=O)([O-])OC1CC[N+](C)(C)CC1", "note": "[Perifosine]", "values": [{"measurement": "synergy with compound A in cell proliferation", "setting": "[1]", "value": "no synergy"}]}
{"smiles": "Nc1ccn([C@@H]2O[C@H](CO)[C@@H](O)C2(F)F)c(=O)n1", "note": "[Gemcitabine]", "values": [{"measurement": "synergy with compound A in cell proliferation", "setting": "[1]", "value": "no synergy"}]}
{"smiles": "Cc1ccc(NC(=O)c2ccc(CN3CCN(C)CC3)cc2)cc1Nc1nccc(-c2cccnc2)n1", "note": "[Imatinib]", "values": [{"measurement": "synergy with compound A in cell proliferation", "setting": "[1]", "value": "no synergy"}]}
